In patent US8329645B2, “Polymyxin derivatives and uses thereof” (priority 2008, dated 2012):
Where a SMILES comes first, the peptide text is derived from it. Bridges are numbered along the chain shown (N, C = ends). [ ]: non-standard residue; d: D form. The star is where a group is joined. Octanoyl = CCCCCCCC(=O)*; Dab = NCC[C@H](N)C(=O)O; Abu = CC[C@H](N)C(=O)O

Assays:
[1] = system: P. mirabilis ATCC29906; test: Growth inhibition around wells on LB agar plates; format: cell-based, Proteus mirabilis
Experimental: (§1) From an overnight-grown culture of IH3080 on LB agar, a suspension of approx. 10^8 cells/ml was prepared in 0.9% NaCl. Aliquots of this suspension were then pipetted on the agar plates and the plates were gently shaken to spread the suspension evenly on the entire surface of the plate. Thereafter, the unabsorbed part of the suspension was removed by using a Pasteur pipette. After the surface had dried, small wells (diameter, 2 mm) were drilled on the plates (five wells per plate) by using a sterile sharp-edged narrow metal tube, single-use pipette tip, and vacuum suction. An alternative method used a swab to spread the inoculum. Samples (4 μl and 10 μl) of the peptide solution in 0.9% NaCl (at concentrations of 1 μg/ml and 0.1 μg/ml) were then pipetted to the wells and the sample fluids were allowed to absorb. Controls included 0.9% NaCl solution without the compound to be tested. The plates were then incubated for 18 h at 37° C. whereafter the diameters of growth inhibition zones around each well were measured; the diameter of the well itself was not reduced. Finally, the diameters were converted to surface areas of growth inhibition (in square mm).
(§2) The susceptibility of eleven Gram-negative bacterial strains (nine different species) to NAB734 and polymyxin B was compared by using the susceptibility determination method described in Example 2. The strains included those belonging to the species of Serratia marcescens and Proteus mirabilis, both species generally known to be resistant to polymyxin. Furthermore, the susceptibility determination was also performed by using the Gram-positive bacterium, Staphylococcus aureus, also generally known to be polymyxin-resistant. Ten of the strains originated from ATCC (American Type Culture Collection, Manassas, Va., U.S.A.), and one from CCUG (Culture Collection of University of Gothenburg, Sweden). The source of E. coli IH3080 has been described in Example 2. Polymyxin B sulfate was from Sigma-Aldrich (St. Louis, Mo., USA).

[2] = system: K. pneumoniae CCUG45421; test: Growth inhibition around wells on LB agar plates; format: cell-based, Klebsiella pneumoniae
Experimental: as §1, §2

[3] = system: K. pneumoniae ATCC13883; test: Growth inhibition around wells on LB agar plates; format: cell-based, Klebsiella pneumoniae
Experimental: as §1, §2

[4] = system: E. cloacae ATCC23355; test: E-test MIC with or without NAB7061 (4 μg/ml), Mueller-Hinton agar; format: cell-based, Enterobacter cloacae
Method in brief: (§3)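 Testing used commercial E-strips as directed by their maker. The minimum inhibitory concentration was determined from each strip.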

[5] = system: E. cloacae ATCC23355; test: Growth inhibition around wells on LB agar plates; format: cell-based, Enterobacter cloacae; settings: 4 μg
Experimental: as §1, §2

[6] = system: E. coli IH3080; test: E-test MIC with or without NAB7061 (4 μg/ml), Mueller-Hinton agar; format: cell-based, Escherichia coli
Method in brief: as §3

[7] = system: E. coli IH3080; test: Experimental E. coli peritonitis model in mice, NAB739 (Example 18); format: in vivo
Experimental: A suspension of E. coli IH3080 (K1:O18) in saline (0.9% NaCl) was prepared from an overnight culture on a blood agar plate (Statens Serum Institut, Copenhagen, Denmark). All mice (female NMR1 from Harlan Scandinavia, Allerød, Denmark; weight, 25-30 g) were inoculated intraperitoneally with 0.5 ml of the suspension containing 0.96×10^6 CFU per ml in the lateral lower quadrant of the abdomen. At 1 h, the CFU count was determined from three mice and the remaining mice (four mice per group) were treated with a subcutaneous injection of 0.2 ml of erythromycin solution in saline (corresponding to 5 mg/kg body weight) or NAB7061 solution in saline (corresponding to 5 mg/kg body weight), or both erythromycin and NAB7061 (corresponding to 5 mg/kg body weight of both drugs; given at two separate sites). Control group received two 0.2 ml injections of saline. At 4.5 h postinfection, all mice were anaesthetized with CO2 and sacrificed. Sterile saline (2 ml) was injected intraperitoneally and the abdomen was gently massaged before it was opened and the fluid sampled. Appropriate dilutions of the fluid were plated on blood agar plates, the plates were incubated overnight, and the colonies were counted.
The experiment was performed by using the methodology described in Example 12.
The mice were inoculated intraperitoneally with 0.5 ml of the E. coli IH3080 suspension containing 1×10^6 CFU per ml. The treatment groups (7 animals per group) were the following: A, control animals receiving saline; B, animals receiving the dose of 1 mg/kg of NAB739 subcutanously at 1 h and at 3 h postinfection; C, animals receiving the dose of 2 mg/kg of NAB739 subcutanously at 1 h and at 3 h postinfection; D, animals receiving the dose of 4 mg/kg of NAB739 subcutanously at 1 h and at 3 h postinfection; E, animals receiving the dose of 2 mg/kg of the control compound, polymyxin B sulfate (Sigma-Aldrich, P0972) subcutanously at 1 h and at 3 h postinfection.

[8] = in vivo; settings: male, Sprague-Dawley, rat, iv, 1 mg/kg
Experimental: Four rats (Sprague-Dawley, male) were studied.
The samples were analyzed using liquid chromatography and mass spectrometry with electrospray ionization interface (LC/electrospray ionization MS).

[9] = system: E. coli IH3080 (O18:K1); test: Synergistic bactericidal activity with guinea pig serum (complement); format: cell-based, Escherichia coli
Experimental: The ability of NAB7061 to sensitize encapsulated, smooth strain of E. coli to the bactericidal action of normal guinea pig serum (GPS) was studied by the method described by Vaara et al. (1984). E. coli IH3080 (018,K1) was grown in LB broth (LB broth Lennox, Difco, BD, Sparks, Md., U.S.A) at 37° C. in a rotary shaker into early logarithmic growth phase, washed with PBS (phosphate-buffered saline, 8.0 g of NaCl, 0.2 g of KCl, 1.44 g of Na2HPO4×2H2O and 0.2 g of KH2PO4 per liter) and resuspended in PBS, to approx. 10^9 cells/ml). GPS was used as complement source. It was stored at −70° C. before use.
The experimental procedure was as follows. 10% GPS in PBS was inoculated with approx. 500 CFU (colony forming units) of bacteria per ml and pipetted in 0.2 ml aliquots into wells of microtiter plates. The wells already contained increasing amounts of NAB7061 in 0.020 ml of 0.9% NaCl. The plate was incubated at 37° C. for 2 h whereafter each well was emptied onto LB plates. The plates were incubated overnight at 37° C. and the developed colonies were counted.

Question: For Polymyxin B [reference compound], which “growth inhibition around a well” value ([1]; 4 μg) is on record?
Answer: 0 square millimeters

Question: And the “growth inhibition around a well” value ([1]; 10 μg)?
Answer: 0 square millimeters

Question: What about the “growth inhibition around a well” value ([2]; 4 μg) of the same compound?
Answer: 95 square millimeters

Question: What about the “growth inhibition around a well” value ([2]; 10 μg) of the same compound?
Answer: 133 square millimeters

Question: And the “growth inhibition around a well” value ([3]; 4 μg)?
Answer: 79 square millimeters

Question: And the “growth inhibition around a well” value ([3]; 10 μg)?
Answer: 113 square millimeters

Question: What about the “Sensitization factor to antibiotic (MIC without / with 4 μg/ml of NAB 7061)” value [4] of the same compound?
Answer: 4

Question: And the “growth inhibition around a well” value [5]?
Answer: 95 square millimeters

Question: What about the “Sensitization factor to antibiotic (MIC without / with 4 μg/ml of NAB 7061)” value [6] of the same compound?
Answer: 2

Question: Which results are given for `CCCCCCCC(=O)N[C@H](C(=O)N[C@H](CO)C(=O)N[C@H]1CCNC(=O)[C@H]([C@@H](C)O)NC(=O)[C@H](CCN)NC(=O)[C@H](CCN)NC(=O)[C@H](CC(C)C)NC(=O)[C@@H](Cc2ccccc2)NC(=O)[C@H](CCN)NC1=O)[C@@H](C)O` [NAB 739, OA-Thr-DSer-cy[Dab-Dab-DPhe-Leu-Dab-Dab-Thr-]] (Octanoyl-T[dS][Dab][Dab][dF]L[Dab][Dab]T; lactam 3-C)?
Answer: CFU counts from the peritoneum, fold lower than in the saline control group ([7]; 1 mg/kg s.c. at 1 h and 3 h, 7 h postinfection): ≥ 10 000 fold; CFU counts from the peritoneum, fold lower than in the saline control group ([7]; 2 mg/kg s.c. at 1 h and 3 h, both 4 h and 7 h postinfection): ≥ 10 000 fold; CFU counts from the peritoneum, fold lower than in the saline control group ([7]; 4 mg/kg s.c. at 1 h and 3 h, both 4 h and 7 h postinfection): ≥ 10 000 fold; CL renal ([8]; plasma and urine): 0.53 ± 0.3 mL/min/kg; Vd ([8]; plasma): 0.222 ± 0.0205 L/kg; clearance ([8]; plasma): 2.63 ± 0.54 mL/min/kg; half-life ([8]; plasma): 1.15 ± 0.365 h; dose excreted ([8]; urine): 19.4 ± 7.38%

Question: With `CCCCCCCC(=O)N[C@H](C(=O)N[C@@H](CC)C(=O)N[C@H]1CCNC(=O)[C@H]([C@@H](C)O)NC(=O)[C@H](CCN)NC(=O)[C@H](CCN)NC(=O)[C@H](CC(C)C)NC(=O)[C@@H](Cc2ccccc2)NC(=O)[C@H](CCN)NC1=O)[C@@H](C)O` [NAB 7061, OA-Thr-Abu-cy[Dab-Dab-DPhe-Leu-Dab-Dab-Thr-]] (Octanoyl-T[Abu][Dab][Dab][dF]L[Dab][Dab]T; lactam 3-C) as the compound, how does the “% survival after 2-hour treatment at 37° C.” value (from here on “% survival”) ([9]; 10% GPS, heat inactivated, NAB7061 2 μg/ml) read?
Answer: 500%

Question: What about the “% survival” value ([9]; 10% GPS, NAB7061 2 μg/ml) of the same compound?
Answer: 2%

Question: And the “% survival” value ([9]; 10% GPS, NAB7061 4 μg/ml)?
Answer: 0%

Question: And the “% survival” value ([9]; none (PBS), NAB7061 2 μg/ml)?
Answer: 97%
